In patent US20130310374A1, “Substituted Imidazoquinoline Derivatives” (PIRAMAL ENTERPRISES LIMITED`, priority 2010, published 2013):

Tests used:
AsPC 1 = assay: Cytotoxicity propidium iodide assay, AsPC 1; type: cell-based; conditions: Homo sapiens, ASPC1; AsPC 1 (pancreatic), 48 hours treatment; read-out: IC50 Values in μM, C4b
MDA MB 231 = assay: Cytotoxicity propidium iodide assay, MDA MB 231; type: cell-based; conditions: Homo sapiens; MDA MB 231 (breast), 48 hours treatment; read-out: IC50 Values in μM, C3a
[1] = test system: human PC3 xenograft tumors; assay: Prostate cancer xenograft model (tumor growth inhibition in vivo); set-up: species or system mouse; conditions: SCID mice, 3 mpk p.o. (Example 3a once daily and BID; Example 19 once daily), 15 days; FIG. 3A
Procedure: Animals: Severe combined immunodeficient (SCID) mice (Male and Female) 6 to 8 weeks old, were used. Animals were housed in suitable cages under specified pathogen-free conditions in rooms maintained at 23° C. and 50% humidity, with a 12-hour light/12-hour dark cycle. The mice were quarantined during the acclimatization period of at least a week.
Prostate cancer xenograft model: PC3 (human prostate cancer) cell line (ATCC) was maintained in RPMI 1640 (Gibco BRL, Pasley, UK) supplemented with 10% (v/v) FBS. The cells were incubated at 37° C. in a humidified atmosphere containing 5% CO2. Cells were passaged using trypsin/EDTA for cell detachment once every 3 days. On the day of tumor cell injection, cells were detached from the flasks with trypsin/EDTA, washed once in medium and re-suspended in serum free RPMI 1640 at 5 million cells/0.2 mL volume, and placed on ice. […]
Procedure: Tumor-bearing mice were randomized (n=7 per group) in four groups when the mean tumor volume was ˜100 mm^3. […] Twice a week, each xenograft was measured in two dimensions (a=length; b=width) with a caliper. Tumor volume (V) was determined by the following equation: V=ab^2/2
Tumor volumes were converted into tumor weights assuming a tumor density of 1 mm^3=1 mg. Tumor growth inhibition (TGI) for each group was calculated according to the following formula: […]

PI3Kα = target: T1, PI3Kα (Homo sapiens, UniProt P42336); assay: p110α radioactive lipid kinase assay (PI3Kα); type: biochemical; conditions: 25 μM ATP
T1 construct: purchased Upstate Millipore
T1 sequence (P42336 whole entry, species assumed): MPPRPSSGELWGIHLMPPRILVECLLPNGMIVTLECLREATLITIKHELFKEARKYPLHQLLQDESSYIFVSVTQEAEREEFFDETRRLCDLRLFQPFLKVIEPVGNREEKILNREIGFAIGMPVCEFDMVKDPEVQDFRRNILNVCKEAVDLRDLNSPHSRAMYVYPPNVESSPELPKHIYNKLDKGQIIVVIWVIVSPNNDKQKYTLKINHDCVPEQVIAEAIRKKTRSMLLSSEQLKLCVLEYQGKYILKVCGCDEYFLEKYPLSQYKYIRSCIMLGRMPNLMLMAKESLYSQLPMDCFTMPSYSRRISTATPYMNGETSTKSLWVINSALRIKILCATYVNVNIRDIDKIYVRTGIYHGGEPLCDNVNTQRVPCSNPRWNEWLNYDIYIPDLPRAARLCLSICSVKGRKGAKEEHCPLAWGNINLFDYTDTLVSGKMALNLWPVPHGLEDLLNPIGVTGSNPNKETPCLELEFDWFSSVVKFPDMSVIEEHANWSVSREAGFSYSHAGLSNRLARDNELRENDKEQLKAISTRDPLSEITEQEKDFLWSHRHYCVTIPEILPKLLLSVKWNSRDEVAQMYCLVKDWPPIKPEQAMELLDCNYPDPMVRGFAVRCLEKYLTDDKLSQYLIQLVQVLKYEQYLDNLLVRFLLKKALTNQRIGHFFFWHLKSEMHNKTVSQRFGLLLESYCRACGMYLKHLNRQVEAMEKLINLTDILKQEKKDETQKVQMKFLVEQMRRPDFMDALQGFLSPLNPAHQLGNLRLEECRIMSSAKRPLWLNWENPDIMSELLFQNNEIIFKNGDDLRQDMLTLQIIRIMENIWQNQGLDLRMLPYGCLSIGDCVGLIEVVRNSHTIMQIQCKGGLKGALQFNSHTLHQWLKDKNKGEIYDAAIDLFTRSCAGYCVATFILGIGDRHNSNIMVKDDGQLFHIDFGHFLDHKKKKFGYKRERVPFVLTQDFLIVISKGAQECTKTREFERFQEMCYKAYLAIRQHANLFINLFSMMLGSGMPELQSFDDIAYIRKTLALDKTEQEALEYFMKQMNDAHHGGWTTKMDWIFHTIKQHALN
T1 sequence (P27986 whole entry partner, species assumed): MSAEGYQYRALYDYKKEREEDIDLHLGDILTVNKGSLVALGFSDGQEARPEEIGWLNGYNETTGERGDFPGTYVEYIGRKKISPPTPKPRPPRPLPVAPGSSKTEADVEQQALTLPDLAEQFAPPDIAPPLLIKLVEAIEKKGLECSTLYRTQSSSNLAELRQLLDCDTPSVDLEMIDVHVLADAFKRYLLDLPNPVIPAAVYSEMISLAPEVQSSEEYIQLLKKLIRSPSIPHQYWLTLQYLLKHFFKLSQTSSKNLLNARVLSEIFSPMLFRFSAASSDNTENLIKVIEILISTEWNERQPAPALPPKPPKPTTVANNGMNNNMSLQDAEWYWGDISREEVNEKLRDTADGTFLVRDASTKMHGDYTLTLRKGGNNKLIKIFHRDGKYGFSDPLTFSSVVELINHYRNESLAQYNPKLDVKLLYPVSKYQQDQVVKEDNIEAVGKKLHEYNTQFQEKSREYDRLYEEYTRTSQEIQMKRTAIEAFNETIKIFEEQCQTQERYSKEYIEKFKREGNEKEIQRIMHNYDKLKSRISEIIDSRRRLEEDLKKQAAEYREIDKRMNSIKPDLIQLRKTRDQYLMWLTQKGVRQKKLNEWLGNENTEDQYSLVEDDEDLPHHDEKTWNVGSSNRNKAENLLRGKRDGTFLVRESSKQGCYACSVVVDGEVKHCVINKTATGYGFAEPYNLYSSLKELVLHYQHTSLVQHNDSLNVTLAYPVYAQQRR
Procedure: Protocol for Kinase Assay (PI3Kα)
p110α Radioactive Lipid Kinase Assay
The assay was designed as in the reference, Journal of Biomolecular Screening, 2002, Vol. 7, No. 5, 441-450, the disclosure of which is incorporated herein by reference for the teaching of the assay.
The p110α biochemical assay was performed using a radioactive assay measuring the incorporation of ^32P into the p110α substrate, phosphatidylinsoitol (PI). For the generation of IC50 curves, the reaction was performed in a 96-well MaxiSorp plates. Plates were pre-coated with 4 μg/well of a 1:1 ratio of phosphatidylinositol (PI: Avanti #840042C) and phosphatidylserine (PS: Avanti #840032C) diluted in CHCl3. Equal amount of p110α (Upstate Millipore) protein was added to each well, containing 25 μL reaction buffer (50 mM MOPSO pH7.0, 100 mM NaCl, 4 mM MgCl2, 0.1% (w/v) BSA) whereas, for negative control, only reaction buffer was added. Compounds of the present invention dissolved in DMSO were treated at nine-point dose responses (0.3, 1, 3, 6, 10, 30, 60, 100 and 300 nM). Reactions were initiated by the addition of 25 μM ATP solution (Sigma, USA) containing 50 μCi/mL [γ-^32P]-ATP and incubated at RT for 2 hours with gentle shaking. […] The radioactivity incorporated into the immobilized PI substrate was determined with Top Count (Perkin Elmer). Inhibition was calculated using the following equation: […]

U 87 MG = assay: Cytotoxicity propidium iodide assay, U 87 MG; type: cell-based; conditions: Homo sapiens; U 87 MG (glioblastoma), 48 hours treatment; read-out: IC50 Values in μM, C5c
Procedure: The assay was designed as in the reference, Anticancer Drugs, 2002, 13, 1-8, the disclosure of which is incorporated herein by reference for the teaching of the assay.
Cells from cell lines (ATCC) as mentioned in the table given below were seeded at a density of 3000 cells/well in a white opaque 96-well plate. Following incubation at 37° C./5% CO2 for a period of 18-24 hours, the cells were treated with various concentrations (stock solution was prepared in DMSO and subsequent dilutions were made in media as per ATCC guidelines) of the compounds of the present invention for a period of 48 hours. At the end of treatment, the culture medium was discarded, the cells were washed with 1×PBS and 200 μL of […] propidium iodide was added to each well. […] For analysis, the plates were warmed to RT, allowed to thaw and were read in PoleStar fluorimeter with the fluorescence setting. The percentage of viable cells in the non-treated set of wells was considered to be 100 and the percentage viability following treatment was calculated accordingly. IC50 values were calculated from graphs plotted using these percentages. IC50 values for certain compounds of present invention are depicted in Table 1 and % Inhibition of certain compounds of present invention are depicted in Table 2.

IC50 (PI3Kα) [nM]	SMILES	IC50 (AsPC 1) [µM]	IC50 (MDA MB 231) [µM]	Tumor growth in-vivo, PC3 xenograft [1]	IC50 (U 87 MG) [µM]
–	Cn1c(=O)n(-c2ccc(C(C)(C)C#N)nc2)c2c3cc(-c4cnc5ccccc5c4)ccc3ncc21 [Example 2, 2-Methyl-2-(5-(3-methyl-2-oxo-8-(quinolin-3-yl)-2,3-dihydro-1H-imidazo[4,5-c]quinolin-1-yl)pyridin-2-yl)propanenitrile]	0.09	0.07	–	–
–	Cn1c(=O)n(-c2ccc(C(C)(C)C#N)nc2)c2c3cc(-c4cnc(N)c(C(F)(F)F)c4)ccc3ncc21 [Example 3, 2-(5-(8-(6-Amino-5-(trifluoromethyl)pyridin-3-yl)-3-methyl-2-oxo-2,3-dihydro-1H-imidazo[4,5-c]quinolin-1-yl)pyridin-2-yl)-2-methylpropanenitrile]	0.019	0.014	–	–
1.37	CS(=O)(=O)O.Cn1c(=O)n(-c2ccc(C(C)(C)C#N)nc2)c2c3cc(-c4cnc(N)c(C(F)(F)F)c4)ccc3ncc21 [Example 3a, 8-(6-Amino-5-(trifluoromethyl)pyridin-3-yl)-1-(6-(2-cyanopropan-2-yl)pyridin-3-yl)-3-methyl-2-oxo-2,3-dihydro-1H-imidazo[4,5-c]quinolin-5-ium methanesulfonate]	–	–	effectively inhibit tumor growth in-vivo	–
–	CC(C)(C#N)c1ccc(-n2c(=O)n(CC#N)c3cnc4ccc(-c5cnc(N)c(C(F)(F)F)c5)cc4c32)cn1 [Example 16, 2-(5-(8-(6-Amino-5-(trifluoromethyl)pyridin-3-yl)-3-(cyanomethyl)-2-oxo-2,3-dihydro-1H-imidazo[4,5-c]quinolin-1-yl)pyridin-2-yl)-2-methylpropanenitrile]	0.038	0.07	–	7.75
2.89	COc1ccc(-n2c(=O)n(C)c3cnc4ccc(-c5cnc(N)c(C(F)(F)F)c5)cc4c32)cn1 [Example 19, 8-(6-Amino-5-(trifluoromethyl)pyridin-3-yl)-1-(6-methoxypyridin-3-yl)-3-methyl-1H-imidazo[4,5-c]quinolin-2(3H)-one]	0.1	0.17	effectively inhibit tumor growth in-vivo	3.88
